According to patent publication US20210000890A1, “COMPOSITIONS AND METHODS FOR DENTAL CARE” (The State of Israel, Ministry of Agriculture & Rural …, priority 2019, published 2021):

Key:
[1] = tested on: S. mutans biofilm; assay: Mono and dual-species biofilm formation, biofilm biomass by Crystal Violet staining; assay type: cell-based, Streptococcus mutans UA159; conditions: S. mutans cultured as monospecies in TY with the sugar alcohol, 24 h
Protocol: For B. subtilis mono-species biofilm, a starter culture was diluted 1:100 (to obtain final O.D (600 nm)=0.07)) into TY or TY supplemented with either 2% sucrose or sorbitol or mannitol at various concentrations (10, 25,50,100 or 125 mM) in 96-well plate (Nunc, Roskilde, Denmark). The plate was incubated at 37° C. in 95% air/5% CO2 for 24 h.
For S. mutans mono-species biofilm, overnight cultured S. mutans (O.D (600 nm)=1)) were diluted 1:10 into TY or TY supplemented with 2% sucrose (served as controls) or TY supplemented with different concentration of sorbitol or mannitol (10, 25,50,100 or 125 mM) into 96-well plate (Nunc). The plate was incubated at 37° C. in 95% air/5% CO2 for 24 h. For dual-species biofilm, cells of B. subtilis and S. mutans were grown into 96-well plate as follows: to fresh TY or TY supplemented with 2% sucrose or different concentration of sorbitol or mannitol (10, 25, 50, 100 or 125 mM) were introduced overnight cultured S. mutans (diluted by a ratio 1:10, approximately 2.5×10^7 CFU) and B. subtilis (diluted by a ratio 1:100, approximately 2.5×10^5 CFU). […]
The generated submerged biofilms were washed carefully twice with saline solution. […] The extract was placed in a new 96-well plate and O.D. at 595 nm was measured using a plate reader instrument (infinite PRO2000, NEOTEC Scientific Instrumentation Ltd. Camspec, Cambridge, United Kingdom)^31,32.

[2] = tested on: S. mutans; assay: Growth curve analysis (O.D. 595 nm); assay type: cell-based, Streptococcus mutans UA159; conditions: for growth of S. mutans: M9 minimal medium, 50 mM as sole carbon source, 16 h; for lag phase of S. mutans: TY medium supplemented with the sugar alcohol, different concentrations
Protocol: For growth curve analysis, B. subtilis or S. mutans cultures grown as described above, were diluted (1:100 or 1:10 respectively) in TY or TY supplemented with 2% sucrose or different concentration of sorbitol or mannitol. When needed, the bacteria were diluted in M9 medium with 0.2% glucose or 50 mM sorbitol/mannitol. The cultures were then incubated at 37° C. overnight with slight shaking. The growth was recorded every hour using optical density measurement at 595 nm (infinite […]).

[3] = tested on: gutB (sorbitol dehydrogenase); assay: Relative gene expression by real-time RT-PCR; assay type: cell-based, B. subtilis; conditions: TY with 50 mM sugar alcohol vs TY alone (=1)
Protocol: (§1) The cultures of either B. subtilis or S. mutans grown as described above, were diluted (1:100 or 1:10 respectively) in TY or TY supplemented with 50 mM sorbitol or mannitol. Next, B. subtilis were grown 37° C. at 150 rpm while S. mutans at 37° C. in 95% air/5% CO2. Samples for each treatment were taken after 3, 6, 12, 18 and 24 hours. One mL of RNA protect (Qiagen, Hilden, Germany) was added to each sample and incubated at RT for 5 min. After, the cells were centrifuged at 4,000×g for 10 min. RNA extraction preformed using GenUP total RNA kit (biotechrabbit, Hennigsdorf, Germany) according to the manufacture's protocol. Reverse transcription was performed using qScript cDNA synthesis kit (Quantabio, Beverly, Mass., USA).The synthesized cDNA was later used for the real-time PCR analysis of key enzymes in the metabolic pathway of S. mutans and B. subtilis (Sorbitol dehydrogenase (gutB) or Mannitol-1-phosphate 5-dehydrogenase (mltD)). The RT-PCR reaction was performed as described previously^33. Briefly, RT-PCR reaction mixture (20 μL) contained 1×SYBR Green (Invitrogen, California, USA), 1 μL cDNA sample and […] of the appropriate forward and reverse PCR primers. PCR conditions included an initial denaturation at 95° C. for 10 min, followed by a 40-cycles of amplification, consisting of denaturation at 95° C. for 15 s and annealing and extension at 60° C. for 1 min. Contamination by residual genomic DNA was determined from control reactions devoid of reverse transcriptase. The expression levels of all the tested genes by real-time PCR were normalized using the 16S rRNA gene of S. mutans as an internal standard ([…] et al., 2007) or sigA gene for B. subtilis.

[4] = tested on: mltD (mannitol-1-phosphate 5-dehydrogenase); assay: Relative gene expression by real-time RT-PCR; assay type: cell-based, B. subtilis; conditions: TY with 50 mM sugar alcohol vs TY alone (=1)
Protocol: as §1

Row | SMILES | S. mutans monospecies biofilm compared to the TY control [1] | growth of S. mutans [2] | lag phase of S. mutans [2] | maximal induction rate of gutB ([3]; after 3 hours) | induction of gutB ([3]; after 6 hours until 24 hours) | maximal induction rate of mltD ([4]; after 3 hours) | induction of mltD ([4]; after 6 hours until 24 hours)
1 | OC[C@@H](O)[C@@H](O)[C@H](O)[C@@H](O)CO [sorbitol] | enhanced biofilm | did not grow | approximately 3 hours | 2 folds | 1.6 fold |  | 
2 | OC[C@@H](O)[C@@H](O)[C@H](O)[C@H](O)CO [mannitol] | enhanced biofilm | did not grow | approximately 3 hours |  |  | 1.6 folds | 1.2 fold
